# Columns and labels:
# Assay in all cases: relative viability (nuclei count vs DMSO), 5 days (fraction); higher = more cells survive
# 201T = system: 201T
# In short: (§1)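 For relative viability, nuclei counts in treated wells were divided by those in vehicle wells. Lung cancer cell lines had been pin-tool dosed in 1536-well plates the day after seeding and cultured for 5 days, then fixed and stained in one step (final 0.05% Triton X-100, 1% formaldehyde, 1 ug/ml Hoechst) and imaged at 4×. Doses were one drug alone or a fixed anchor-drug dose plus five library-drug doses (not always all listed) in √10 steps, and values are duplicate-plate medians.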
# ABC-1 = system: ABC-1
# In short: as §1
# BEN = system: BEN
# In short: as §1
# CAL-12T = system: CAL-12T
# In short: as §1
# COR-L 105 = system: COR-L 105
# In short: as §1
# COR-L23 = system: COR-L23
# In short: as §1
# EKVX = system: EKVX
# In short: as §1
# HARA = system: HARA
# In short: as §1
# HCC-366 = system: HCC-366
# In short: as §1
# LK-2 = system: LK-2
# In short: as §1
# LU99A = system: LU99A
# In short: as §1
# NCI-H1437 = system: NCI-H1437
# In short: as §1
# NCI-H1650 = system: NCI-H1650
# In short: as §1
# NCI-H1666 = system: NCI-H1666
# In short: as §1
# NCI-H2009 = system: NCI-H2009
# In short: as §1
# NCI-H2023 = system: NCI-H2023
# In short: as §1
# NCI-H2170 = system: NCI-H2170
# In short: as §1
# NCI-H3122 = system: NCI-H3122
# In short: as §1
# NCI-H441 = system: NCI-H441
# In short: as §1
# NCI-H661 = system: NCI-H661
# In short: as §1
# NCI-H727 = system: NCI-H727
# In short: as §1
# NCI-H838 = system: NCI-H838
# In short: as §1
# PC-14 = system: PC-14
# In short: as §1
# SW 900 = system: SW 900
# In short: as §1
smiles,measurement,setting,value
C[C@@H]1CN(CC(=O)Nc2ccc3c(c2)Cc2cccc(-c4cc(=O)cc(N5CCOCC5)o4)c2S3)C[C@H](C)O1 + O=C(CCCCCCC(=O)Nc1ccccc1)NO [Vorinostat] (partner 1 µM),relative viability,201T; first compound 0.04 µM,0.926
same,relative viability,201T; first compound 0.1265 µM,0.942
same,relative viability,201T; first compound 0.4 µM,1.01
same,relative viability,201T; first compound 4 µM,0.81
same,relative viability,ABC-1; first compound 0.04 µM,0.917
same,relative viability,ABC-1; first compound 0.1265 µM,1.14
same,relative viability,ABC-1; first compound 0.4 µM,1.23
same,relative viability,ABC-1; first compound 4 µM,1.27
same,relative viability,BEN; first compound 0.04 µM,0.56
same,relative viability,BEN; first compound 0.1265 µM,0.55
same,relative viability,BEN; first compound 0.4 µM,0.602
same,relative viability,BEN; first compound 4 µM,0.625
same,relative viability,CAL-12T; first compound 0.04 µM,0.719
same,relative viability,CAL-12T; first compound 0.1265 µM,0.623
same,relative viability,CAL-12T; first compound 0.4 µM,0.739
same,relative viability,CAL-12T; first compound 4 µM,0.377
same,relative viability,COR-L 105; first compound 0.04 µM,0.799
same,relative viability,COR-L 105; first compound 0.1265 µM,0.783
same,relative viability,COR-L 105; first compound 0.4 µM,0.926
same,relative viability,COR-L 105; first compound 4 µM,0.875
same,relative viability,COR-L23; first compound 0.04 µM,0.433
same,relative viability,COR-L23; first compound 0.1265 µM,0.451
same,relative viability,COR-L23; first compound 0.4 µM,0.473
same,relative viability,COR-L23; first compound 4 µM,0.333
same,relative viability,EKVX; first compound 0.04 µM,0.753
same,relative viability,EKVX; first compound 0.1265 µM,0.666
same,relative viability,EKVX; first compound 0.4 µM,0.696
same,relative viability,EKVX; first compound 4 µM,0.661
same,relative viability,HARA; first compound 0.04 µM,0.511
same,relative viability,HARA; first compound 0.1265 µM,0.61
same,relative viability,HARA; first compound 0.4 µM,0.445
same,relative viability,HARA; first compound 4 µM,0.436
same,relative viability,HCC-366; first compound 0.04 µM,0.314
same,relative viability,HCC-366; first compound 0.1265 µM,0.366
same,relative viability,HCC-366; first compound 0.4 µM,0.346
same,relative viability,HCC-366; first compound 4 µM,0.264
same,relative viability,LK-2; first compound 0.04 µM,0.314
same,relative viability,LK-2; first compound 0.1265 µM,0.309
same,relative viability,LK-2; first compound 0.4 µM,0.254
same,relative viability,LK-2; first compound 4 µM,0.298
same,relative viability,LU99A; first compound 0.04 µM,0.444
same,relative viability,LU99A; first compound 0.1265 µM,0.582
same,relative viability,LU99A; first compound 0.4 µM,0.544
same,relative viability,LU99A; first compound 4 µM,0.595
same,relative viability,NCI-H1437; first compound 0.04 µM,0.837
same,relative viability,NCI-H1437; first compound 0.1265 µM,0.768
same,relative viability,NCI-H1437; first compound 0.4 µM,0.819
same,relative viability,NCI-H1437; first compound 4 µM,0.609
same,relative viability,NCI-H1650; first compound 0.04 µM,0.604
same,relative viability,NCI-H1650; first compound 0.1265 µM,0.488
same,relative viability,NCI-H1650; first compound 0.4 µM,0.588
same,relative viability,NCI-H1650; first compound 4 µM,0.517
same,relative viability,NCI-H1666; first compound 0.04 µM,1.01
same,relative viability,NCI-H1666; first compound 0.1265 µM,1.17
same,relative viability,NCI-H1666; first compound 0.4 µM,1.09
same,relative viability,NCI-H1666; first compound 4 µM,0.885
same,relative viability,NCI-H2009; first compound 0.04 µM,0.635
same,relative viability,NCI-H2009; first compound 0.1265 µM,0.772
same,relative viability,NCI-H2009; first compound 0.4 µM,0.664
same,relative viability,NCI-H2009; first compound 4 µM,0.497
same,relative viability,NCI-H2023; first compound 0.04 µM,0.578
same,relative viability,NCI-H2023; first compound 0.1265 µM,0.59
same,relative viability,NCI-H2023; first compound 0.4 µM,0.581
same,relative viability,NCI-H2023; first compound 4 µM,0.505
same,relative viability,NCI-H2170; first compound 0.04 µM,0.857
same,relative viability,NCI-H2170; first compound 0.1265 µM,0.811
same,relative viability,NCI-H2170; first compound 0.4 µM,0.798
same,relative viability,NCI-H2170; first compound 4 µM,0.742
same,relative viability,NCI-H3122; first compound 0.04 µM,1.01
same,relative viability,NCI-H3122; first compound 0.1265 µM,0.84
same,relative viability,NCI-H3122; first compound 0.4 µM,1
same,relative viability,NCI-H3122; first compound 4 µM,1.29
same,relative viability,NCI-H441; first compound 0.04 µM,0.718
same,relative viability,NCI-H441; first compound 0.1265 µM,0.777
same,relative viability,NCI-H441; first compound 0.4 µM,0.849
same,relative viability,NCI-H441; first compound 4 µM,0.625
same,relative viability,NCI-H661; first compound 0.04 µM,0.689
same,relative viability,NCI-H661; first compound 0.1265 µM,0.805
same,relative viability,NCI-H661; first compound 0.4 µM,0.756
same,relative viability,NCI-H661; first compound 4 µM,0.773
same,relative viability,NCI-H727; first compound 0.04 µM,1.03
same,relative viability,NCI-H727; first compound 0.1265 µM,1.17
same,relative viability,NCI-H727; first compound 0.4 µM,1.15
same,relative viability,NCI-H727; first compound 4 µM,1.13
same,relative viability,NCI-H838; first compound 0.04 µM,0.751
same,relative viability,NCI-H838; first compound 0.1265 µM,0.646
same,relative viability,NCI-H838; first compound 0.4 µM,0.633
same,relative viability,NCI-H838; first compound 4 µM,0.535
same,relative viability,PC-14; first compound 0.04 µM,0.75
same,relative viability,PC-14; first compound 0.1265 µM,0.689
same,relative viability,PC-14; first compound 0.4 µM,0.705
same,relative viability,PC-14; first compound 4 µM,0.61
same,relative viability,SW 900; first compound 0.04 µM,0.421
same,relative viability,SW 900; first compound 0.1265 µM,0.607
same,relative viability,SW 900; first compound 0.4 µM,0.534
same,relative viability,SW 900; first compound 4 µM,0.381

# — the supplement of paper PMC10307832
